Test results taken from patent US20260007652A1, “Selective Modulators of AhR-Regulated Transcription and Method for Using Such Modulators to Treat Cancer” (OREGON STATE UNIVERSITY, priority 2022, published 2026).

How the values were obtained:
[1] = test system: SKBR-3 HER2+ breast cancer cells; assay: Cell viability assay, SKBR-3 HER2+ breast cancer cells; format: cell-based, human; settings: 72 hours
Procedure: (§1) Viability assays were performed by seeding cells at a density of 2000 cells per well in 96-well plates, and the following day, treating with compounds for 48 or 72 hours as indicated. Viability was determined by ATP-based Cell-Titer Glo Viability Assay (Promega, Madison WI). Luminescence was measured using the Tropix TR717 microplate luminometer. Viability of treated cells was determined by relativizing to vehicle (0.1-0.3% DMSO) treated wells. For profiling the activity of Analog 523 against the panel of triple-negative breast cancer cell lines, 72-hour treatments are represented.

[2] = test system: primary human mammary epithelial cells (HMECs) and MCF10A; assay: Cell viability, primary human mammary epithelial cells (HMECs) and MCF10A; format: cell-based; settings: 72-hour exposure
Procedure: as §1
All cell lines, except for the ST1 and ST2 cells were purchased from ATCC, and maintained in 5% CO2, at 37° C., in DMEM or RPMI media containing 10% FBS, and 1% penicillin/streptomycin. All HCC-cell lines were maintained in RPMI. All MDA-cell lines were maintained in DMEM. ZR-75I cells were maintained in RPMI. SKBR3 cells were maintained in DMEM. MCF10A cells were maintained in DMEM/F12 medium with the following supplements added: 5% horse serum, 20 ng/mL epidermal growth factor, […] hydrocortisone, 100 ng/mL cholera toxin, 10 μg/mL insulin, 1% Pen/Strep. Primary human mammary epithelial cells (HMECs) were obtained from Lonza Biosciences (Basel, Switzerland) and were maintained according to the specified culture protocols in Clonetics™ Mammary Epithelial Basal Medium (Lonza). […]

AhR = assay: Xenobiotic response element (XRE) driven reporter in Hepa-1 cells, AhR activation; format: cell-based, mouse; settings: 16 hours
Procedure: FIGS. 69A-69D show representative 11-Cl-BBQ analogs (848 and 849) as non-classical AHR ligands. (A) Stability of AHR protein in the H460 whole cell lysate in the presence or absence of 11-Cl-BBQ (5 μM), PRXS-848 (10 μM), and PRXS-849 (10 μM) at the indicated temperatures; GADPH was used as a loading control. (B) Localization of AHR protein in the H460 treated with 11-Cl-BBQ (100 nM), PRXS-848 (250 nM), PRXS-849 (250 nM), or vehicle control (0.1% DMSO) for two hours; top horizontal panel: AHR protein staining using an AHR-specific antibody conjugated with FITC (green) fluorophore; middle panel: DAPI staining; bottle panel: overlaid images from the top panel and the middle panel in the same column. (C) AHR activation (measured by XRE-luciferase reporter assay in Hepa1 cells) of the parental lead 11-Cl-BBQ and analogs PRXS-848 and PRXS-849 at the indicated concentrations for 16 hours. (D) AHR activation of 11-Cl-BBQ cotreated with a known AHR antagonist CH223191 (1 μM) or 11-Cl-BBQ analogs PRXS-848 and PRXS-849 at the indicated concentrations for 16 hours.
FIG. 76 presents representative AhR compounds (BBQ analogs) of the invention effective for activation of AhR transcription. Activation values greater than 1 at 100 nM were considered a hit with nanomolar affinity to promote AhR activity and synergize with the identified compounds from the synergy screens. Referring to FIG. 76, Fold@ 1 nM refers to activation of AhR transcription at 1 nM; Fold@100 nM refers to activation of AbR transcription at 100 nM; and Fold rel @ 100 refers to relative activation at 100 nM compared to parental compound, 11-Cl-BBQ. The representative AhR ligand compounds presented in FIG. 76 activate AhR transcription and therefore are useful as anti-cancer agents, either alone or in combination with the synergizing compounds (and chemotherapeutic agents) described herein.
was identified as a top hit compound based on its potent (>50% inhibition at 0.1 μM), and selective activity against AhR WT cells versus AhR KO cells (>70% difference between WT and KO cells at 10 μM) (FIG. 11). […] This confirmed Analog 523 activates AhR-mediated transcription and functions as an AhR ligand.

HCC1187 cells = assay: Cell viability assay, HCC1187 TNBC cells; format: cell-based, human
Procedure: as §1

MDA-MB-468 cells [3] = assay: Cell-Titer Glo viability assay, MDA-MB-468 AhR WT and AhR KO cells; format: cell-based, human
Procedure: as §1
Analogs of 11-Cl-BBQ were synthesized by Praxis Precision Medicines. Screening was performed using MDA-MB-468 AhR WT and AhR KO cells previously described. Cells were seeded in 10% serum or 2% serum containing media with 1% Pen/Strep at a density of 2000 cell/well in 96-well plates. 20 hours post-seeding, cells were treated with 0.1 μM, 1 μM, or 10 μM of each analog (final DMSO concentration 0.1%-0.2%). After 48 and 72 hours, cells were harvested. The ATP-Based CellTiter Glo Assay kit (Promega, Madison, WI) was used for measuring cell viability.

MDA-MB-468 cells [4] = assay: Transcriptional profiling by RNA-Seq, MDA-MB-468 AhR WT cells; format: cell-based, human; settings: 250 nM
Procedure: MDA-MB-468 AhR WT and AhR KO cells were seeded in 10 cm plates (3.5 million cells/plate) and allowed to attach overnight. The following day, media was replaced with fresh media containing 250 nM of Analog 523 or Vehicle (0.1% DMSO). Treatments were performed in triplicate. At 4 hours and 12 hours post-treatment, samples were harvested by addition of 700 μL of TRK-Lysis buffer and RNA isolation then performed according to the manufacturer's instructions (E.Z.N.A. Total RNA Kit, Omega Bio-Tek, Norcross, GA). Samples were quantified and 260/280 and 260/230 values inspected by NanoDrop. Samples were then sent for quality control, library preparation (poly-A enrichment) and sequencing at Novogene. Sequencing was performed with 150 bp paired-end reads to a depth of 20 million reads […].

ST2 cells = assay: Cell viability assay, TNBC stem cells ST2; format: cell-based; settings: Homo sapiens, ST-2; 100 nM; 48 hours
Procedure: as §1
ST1 and ST2 cells were cultured in Mammary epithelial growth medium (Biowhitakker) (Lonza), with the following supplements: Epidermal growth factor (20 ng/mL) (Sigma), basic fibroblast growth factor (20 ng/mL) (BD Biosciences), Heparin (4 μg/mL) (Sigma), B27 Supplement (Invitrogen), Penicillin/Streptomycin (Omega), Gentamycin (35 μg/mL) (Sigma). Cells were gently passaged with Accutase solution. The isolation and characterization of the ST1 and ST2 lines have been previously described (Strietz et al., 2021).

HCC70 cells = assay: Cell viability assay, HCC70 TNBC cells; format: cell-based, human
Procedure: as §1

[5] = rats; cited from earlier work

O=c1c2cccc3cccc(c32)c2nc3ccccc3n12 [Analog 523, 7H-benzimidazo[2,1-a]benzo[de]isoquinolin-7-one]
concentrations at which cell line was sensitive (viability) [1]: > 1 µM
inhibition of cell viability in normal mammary epithelial cells ([2]; 10 μM): ~20%
cytotoxicity in normal mammary epithelial cells ([2]; 0.01-10 μM): did not induce any cytotoxicity
receptor activation (XRE reporter) (AhR; 100 μM): ~2 fold
maximal reporter induction (AhR; approximately 100 nM): 10-12 fold
IC50 (HCC1187 cells; Homo sapiens, HCC1187, 72-hour treatment): 81.7 nM
inhibition (cell viability) (HCC1187 cells; at <0.5 μM, 72 hours): > 50%
difference between WT and KO cells (cell viability) (MDA-MB-468 cells [3]; 10 μM, AhR WT versus AhR KO): > 70%
percent inhibition of cell viability at 0.1 µM (MDA-MB-468 cells [3]; Homo sapiens, 0.1 μM, AhR WT MDA-MB-468 cells): > 50%
IC50 (MDA-MB-468 cells [3]; Homo sapiens, MDA-MB-468, 72-hour treatment): 41.2 nM
inhibition (cell viability) (MDA-MB-468 cells [3]; at <0.5 μM, 72 hours): > 50%
BIK mRNA induction (MDA-MB-468 cells [4]): ~1.5 fold
BMF mRNA induction (MDA-MB-468 cells [4]): 4-5 fold
PMA1P1 mRNA induction (MDA-MB-468 cells [4]): ~1.5 fold
IER3 mRNA increase (MDA-MB-468 cells [4]; 12 hours): greater than 6 fold
OSGIN1 mRNA increase (MDA-MB-468 cells [4]; 12 hours): > 4 fold
inhibition of cell viability at 0.1 µM (ST2 cells): > 50%
IC50 (HCC70 cells; Homo sapiens, HCC70, 72-hour treatment): 153 nM
inhibition (cell viability) (HCC70 cells; at <0.5 μM, 72 hours): > 50%
LD50 [5]: 660 mg/kg
